From patent US20240190851A1, “FURAN FUSED RING-SUBSTITUTED GLUTARIMIDE COMPOUND” (MEDSHINE DISCOVERY INC., priority 2021, published 2024) come the findings set out here.

Where a name gives a salt, the structure may show the parent alone.

Experiment [1] concerns human prostate cancer LNCaP cells. In words: Antiproliferative effect in LNCaP cells (CellTiter-Glo, 6 days). Type of experiment: cell-based. As to conditions: 144 h. How it is done:
In this experiment, the inhibitory effect of the test compound on cell proliferation in human prostate cancer LNCaP cells was detected.
The tumor cell lines were cultured in a 37° C., 5% CO2 incubator under the above culture conditions. Regular passage, and cells in logarithmic growth phase were taken for plating.
2. Cell Plating • (1) Cells were stained with trypan blue and viable cells were counted; • (2) the cell concentration was adjusted to an appropriate concentration;
• (3) 90 μL of cell suspension per well was added to the culture plate as shown in the table above, and cell-free culture medium was added to the blank control well; • (4) the culture plate was cultured overnight in a 37° C., 5% CO2 incubator with 100% relative humidity.
Preparation of stock solution storage plate with 400 times the initial concentration of the compound: The compound was serially diluted with DMSO from the highest concentration to the lowest concentration. The solution was prepared as needed each time.
Preparation of Working Solution with 10 Times the Initial Concentration of Compounds and Cell Treatment with Compounds • (1) To a V-bottom 96-well plate was added 78 μL of cell culture medium, and 2 μL of compound was pipetted from a stock solution storage plate with 400 times the initial concentration of the compound and added to the cell culture medium of the 96-well plate. To vehicle control and blank control was added 2 μL of DMSO. After the compound or DMSO was added, blowing with a pipette and mixing well were carried out. • (2) Administration: 10 μL of a working solution with 10 times the initial concentration of the compound was added to the cell culture plate. To vehicle control and blank control was added 10 μL of DMSO-cell culture medium mixture. • (3) The 96-well plate was returned to the incubator and cultured for 6 days.
The following steps were performed according to the instructions of Promega CellTiter-Glo luminescent cell viability assay kit (Promega-G7573). • (1) CellTiter-Glo buffer was melted and brought to room temperature; • (2) CellTiter-Glo substrate was brought to room temperature; • (3) CellTiter-Glo working solution was prepared by adding 100 mL of CellTiter-Glo buffer to a vial of CellTiter-Glo substrate to dissolve the substrate; • (4) the mixture was slowly vortexed and shaken to be fully dissolved; • (5) the cell culture plate was taken out and left for 30 minutes to equilibrate to room temperature; • (6) 50 μL of CellTiter-Glo working solution was added per well (equal to half the volume of cell culture medium per well). The cell plate was wrapped in aluminum foil to be protected from light; • (7) the culture plate was shaken on an orbital shaker for 2 minutes to induce cell lysis; (8) the culture plate was left at room temperature for 10 minutes to stabilize the luminescent signal; • (9) the luminescent signal was detected on a 2104 EnVision plate reader.
The inhibition rate (IR) of the test compound was calculated using the following formula: IR (%)=(RLU vehicle control−RLU compound)/(RLU vehicle control−RLU blank control)×100%. The inhibition rates of compounds at different concentrations were calculated in Excel, and then GraphPad Prism software was used to plot inhibition curves and calculate relevant parameters, including minimum inhibition rate, maximum inhibition rate, and ICSO.

The target of a further experiment is T1, androgen receptor AR (Homo sapiens, UniProt P10275, T878A).
T1 construct: degradation effect of compounds on androgen receptor AR in LNCaP cells; endogenous in cells; host or cells: LNCaP
T1 sequence (P10275 1-920 T878A): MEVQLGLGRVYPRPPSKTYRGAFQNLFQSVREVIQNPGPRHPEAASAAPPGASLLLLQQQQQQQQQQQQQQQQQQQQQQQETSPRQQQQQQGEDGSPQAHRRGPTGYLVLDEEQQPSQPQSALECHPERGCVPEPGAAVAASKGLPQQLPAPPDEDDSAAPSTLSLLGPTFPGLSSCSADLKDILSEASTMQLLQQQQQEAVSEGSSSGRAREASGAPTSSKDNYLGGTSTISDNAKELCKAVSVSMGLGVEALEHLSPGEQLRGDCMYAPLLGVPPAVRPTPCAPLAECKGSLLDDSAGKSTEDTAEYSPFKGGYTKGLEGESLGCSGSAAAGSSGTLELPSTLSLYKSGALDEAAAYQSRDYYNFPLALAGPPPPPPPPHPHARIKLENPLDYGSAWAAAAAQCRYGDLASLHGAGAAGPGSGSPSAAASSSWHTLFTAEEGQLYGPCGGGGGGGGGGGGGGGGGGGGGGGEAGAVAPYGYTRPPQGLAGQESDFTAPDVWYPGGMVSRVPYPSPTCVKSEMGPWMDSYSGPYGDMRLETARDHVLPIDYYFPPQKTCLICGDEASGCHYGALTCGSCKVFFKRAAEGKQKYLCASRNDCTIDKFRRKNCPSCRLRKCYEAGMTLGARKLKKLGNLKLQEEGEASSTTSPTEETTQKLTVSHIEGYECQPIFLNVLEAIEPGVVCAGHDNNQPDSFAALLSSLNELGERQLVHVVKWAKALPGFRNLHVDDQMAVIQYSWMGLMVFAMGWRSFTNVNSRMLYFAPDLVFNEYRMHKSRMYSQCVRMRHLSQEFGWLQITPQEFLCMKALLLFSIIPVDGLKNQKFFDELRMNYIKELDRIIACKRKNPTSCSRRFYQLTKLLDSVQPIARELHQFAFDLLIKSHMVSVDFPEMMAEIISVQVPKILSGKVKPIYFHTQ
As to the kind of experiment: AR degradation in LNCaP cells by ICW method. Conditions: 24 hours. Type of experiment: cell-based. The method, then: Experimental purpose: To test the degradation effect of compounds on androgen receptor AR in LNCaP cells by ICW method.
Day 1 • 1. The cell culture medium, 0.025% trypsin, and phosphate buffered saline were preheated in a 37° C. water bath. • 2. Cells digested by trypsin were centrifuged at 1000 rpm for 5 minutes. The supernatant was discarded, and then the cells were resuspended in fresh culture medium. • 3. The cells were inoculated in a COL-Coated CellCarrier-384 plate at a density of 4 k/[…]/well. • 4. The 384 cell plate inoculated with cells was placed in an ultra-clean bench for 10 minutes. • 5. The cell plate was cultured overnight in a CO2 cell incubator.
Day 2 • 1. The compound at a concentration of 10 mM was diluted to 3 mM (3 μL+7 μL of dimethyl sulfoxide) before serial dilution. • 2. The compound was serially diluted 3-fold (4 μL+8 μL) in an Echo plate using Bravo. • 3. ZPE and HPE control wells were setup, and the ZPE control wells were dimethyl sulfoxide. • 4. The Echo plate was centrifuged at 1000 rpm for 1 minute, and then the diluted compound was transferred from the Echo plate to an intermediate plate using Echo with 200 nL/well. • 5. To the intermediate plate was added the cell culture medium using Multidrop combi with […]. • 6. The intermediate plate was shaken on a horizontal shaker for 1 minute to mix the compound well with the culture medium. • 7. The compound was transferred from the intermediate dilution plate to the cell plate using Bravo with 4 μL/well. • 8. The cell plate was shaken on the horizontal shaker for 1 minute, and centrifuged at 800 rpm for 30 seconds. • 9. The cell plate was returned to the CO2 incubator, and cultured for another 24 hours.
Day 3 • 1. 4% paraformaldehyde was removed from the refrigerator and brought to room temperature. • 2. The cell plate was removed from the incubator. • 3. To the cell plate was directly added 4% paraformaldehyde with 40 μL/well. • 4. The plate was incubated at room temperature for 20 minutes. • 5. The culture medium was manually shaken off from the cell plate, inverted in a centrifuge, and centrifuged at 800 rpm for 7 seconds to fully remove the residual culture medium. • 6. To the cell plate was added 4% paraformaldehyde with 25 μL/well. • 7. The plate was incubated at room temperature for 30 minutes. • 8. The paraformaldehyde solution was manually shaken off from the cell plate, inverted in the centrifuge, and centrifuged at 800 rpm for 7 seconds. • 9. 0.1% Trition was added with 25 μL/well. • 10. The plate was incubated at room temperature for 10 minutes. • 11. The 0.1% Trition solution was manually shaken off from the cell plate, inverted in the centrifuge, and centrifuged at 800 rpm for 7 seconds. • 12. Intercept® (PBS) blocking buffer was added with 25 μL/well. • 13. The plate was incubated at room temperature for 1 hour. • 14. The Intercept® (PBS) blocking buffer solution was manually shaken off from the cell plate, inverted in the centrifuge, and centrifuged at 800 rpm for 7 seconds. • 15. Primary antibody solution was added with 20 μL/well. The cell plate was placed in the centrifuge, and centrifuged at 800 rpm for 7 seconds. • 16. The cell plate was sealed, and then incubated overnight at 4° C.
Day 4 • 1. The primary antibody solution was manually shaken off from the cell plate, inverted in the centrifuge, and centrifuged at 800 rpm for 7 seconds. • 2. The plate was washed three times with 110 μL of PBS. • 3. The cell plate was inverted in the centrifuge, and centrifuged at 800 rpm for 7 seconds. • 4. Secondary antibody and DAPI solution was added with 20 μL/well. The cell plate was placed in the centrifuge, and centrifuged at 800 rpm for 7 seconds. • 5. The plate was incubated at room temperature for 1 hour. • 6. The secondary antibody and DAPI solution was manually shaken off from the cell plate, inverted in the centrifuge, and centrifuged at 800 rpm for 7 seconds. • 7. […]

In experiment [2] the test system is human prostate cancer LNCaP xenograft tumor. In words: In vivo pharmacodynamic study, LNCaP subcutaneous xenograft tumor CB-17 SCID model. Further details: species or system CB-17 SCID mice. Conditions: Enzalutamide 20 mg/kg p.o. QD. How it is done:
Human prostate cancer LNCaP cells (ECACC-89110211) were cultured in vitro in a monolayer under the culture conditions of RPMI-1640 medium with 10% fetal bovine serum, […], and 100 μg/mL streptomycin, and cultured in a 37° C., 5% CO2 incubator.
Routine digestion with trypsin-EDTA was performed twice a week for passaging. When the cell saturation density was 80% to 90% and the number of cells reached the required level, the cells were collected, counted, and inoculated.
CB-17 SCID mice, 6 to 8 weeks old, male, weighing 18 to 22 g.
0.2 mL (1×10^7) of LNCaP cells (with matrix gel, volume ratio of 1:1) were subcutaneously inoculated on the right back of each mouse. The mice were subjected to surgical castration when the average tumor volume reached approximately 80 mm^3, and grouping and administration were initiated when the average tumor volume reached 166 mm^3.
Tumor diameters were measured twice a week with a vernier caliper. The formula for calculating tumor volume was: V=0.5a×b^2, wherein a and b represented the long and short diameters of the tumor, respectively.
The antitumor efficacy of compounds was evaluated by TGI (%). TGI (%) reflected the tumor growth inhibition rate. TGI (0%)=[(1−(average tumor volume at the end of administration in a treatment group−average tumor volume at the beginning of administration in this treatment group))/(average tumor volume at the end of treatment in the vehicle control group−average tumor volume at the beginning of treatment in the vehicle control group)]×100%.

The term IC50 denotes the point on the concentration scale where inhibition reaches its midpoint. A lower IC50 goes with inhibition by little substance. Broadly, the DC50 is the concentration giving 50% degradation. Read a high DC50 as degradation only at high concentration. Usually Dmax stands for the largest share of the target that was removed. Low readings indicate shallow degradation, high ones deep degradation.

Take `CC1(C)C(=O)N(c2ccc(C#N)c(C(F)(F)F)c2)C(=S)N1c1ccc(OCCN2CCN(CC(=O)Nc3ccc4c(ccc5occ(C6CCC(=O)NC6=O)c54)c3)CC2)c(F)c1` (centres unmarked) [WX003]: the IC50 in experiment [1] was 230 nM.

`CC1(C)C(=O)N(c2ccc(C#N)c(C(F)(F)F)c2)C(=S)N1c1ccc(OCCN2CCN(C3(C(=O)Nc4ccc5occ(C6CCC(=O)NC6=O)c5c4)CC3)CC2)c(F)c1` (centres unmarked) [WX005] yielded an IC50 in experiment [1] of 190 nM.

On androgen receptor AR, `N#Cc1ccc(O[C@H]2CC[C@H](NC(=O)c3ccc(N4CCC(CN5CCN(c6ccc7c(ccc8occ(C9CCC(=O)NC9=O)c87)c6)CC5)CC4)nn3)CC2)cc1Cl` (some centres unmarked) [Hydrochloride of WX014] gave a DC50 of 22.4 nM and a Dmax of 76.2%.

As to `CC1(C)C(=O)N(c2ccc(C#N)c(C(F)(F)F)c2)C(=S)N1c1ccc(OCCN2CCN(CC(=O)Nc3cccc4c3ccc3occ(C5CCC(=O)NC5=O)c34)CC2)c(F)c1` (centres unmarked) [WX009], at androgen receptor AR, it took 10.1 nM to reach half-maximal degradation (DC50) and the Dmax worked out at 64.7%.

`CNC(=O)c1ccc(N2C(=S)N(c3ccc(C#N)c(C(F)(F)F)c3)C(=O)C2(C)C)cc1F` [Enzalutamide, reference compound]: the “Tumor volume (Day 0)” value in experiment [2] (Day 0, start of administration) was determined as 166 ± 18 mm^3. Also, in experiment [2] (Day 21), the “TGI (Day 21)” value turned out to be 101.9% and the “Tumor volume (Day 21)” value is recorded as 157 ± 37 mm^3.

Take `CC1(C)C(=O)N(c2ccc(C#N)c(C(F)(F)F)c2)C(=S)N1c1ccc(OCCN2CCN(CC(=O)Nc3ccc4occ(C5CCC(=O)NC5=O)c4c3)CC2)c(F)c1` (centres unmarked) [WX001]: half-maximal inhibition in experiment [1] (IC50) was put at 333 nM.

In the case of `CC1(C)C(=O)N(c2ccc(C#N)c(C(F)(F)F)c2)C(=S)N1c1ccc(OCCN2CCN(CCCc3ccc4c(C5CCC(=O)NC5=O)coc4c3)CC2)c(F)c1` (centres unmarked) [WX004], in experiment [1], the IC50 was 25 nM.
